Tests used:
[1] = test system: Akt in MRC5 and A549 cells; assay: Akt kinase assay in cell lines; assay type: cell-based, human; settings: DMA+Radiation vs control and radiation
Method: Akt kinase activity was determined using Akt Kinase Assay Kit (Nonradioactive) (Cell Signaling Technology, Cat. #9840) following the manufacturer's instructions.

[2] = test system: Balb/c mice and tumor bearing mice tissues; assay: Tissue histopathology after 8 Gy TBI; assay type: in vivo, mouse
Method: The hepatic, spleen and small intestine specimens were collected from Balb/c mice and tumor bearing mice three days after 8 Gy TBI with or without pre-treatment with DMA (50 mg/kg) 2 hour before TBI. Tissue specimens were fixed in 10% buffered formalin, embedded in paraffin, sectioned and stained with H&E and examined using an upright trinocular microscope attached to a CCD camera.

A549 cells = assay: Growth kinetics with DMA prior to 6 Gy radiation; assay type: cell-based, human; settings: for % growth compared to control: A549, 50 μM DMA prior to 6 Gy; for % radioprotection: A549, 6 Gy
Method: (§1) FIG. 2. Radioprotection by DMA Against Radiation in MRC5 and A549 Cell Lines. A) Proliferation of viable MRC5. B) Graphical representation of % survival of MRC5 cell line at 24 and 48 h C) A549 treated with 50 μM DMA in presence and absence of 6 Gy radiation and D) Graphical representation of % survival of A549 cell line at 24 and 48 h. Cell numbers were determined by haemocytometer at 0, 6, 12, 24 and 48 h. Values are mean (±SD) of three independent experiments. *p<0.05 compared to the control group.
(§2) 2 h subsequent to DMA treatment, cells was exposed to γ-irradiation (1.3 Gy/min dose rate) using Co-60 source (Institute of Nuclear Medicine and Allied Sciences, Delhi, India). Following irradiation, cells were incubated for 4 h in a 5% CO2 humidified incubator and processed for further sample preparation.

MRC5 cells = assay: Growth kinetics with DMA prior to 6 Gy radiation; assay type: cell-based, human; settings: for % growth compared to control: MRC5, 50 μM DMA prior to 6 Gy; for % radioprotection: MRC5, 6 Gy
Method: as §1, §2

[3] = Plasma pharmacokinetics of DMA; assay type: in vivo, mouse
Method: Oral and intravenous pharmacokinetics of DMA was performed at a dose of 100 and 50 mg/kg bw, respectively. Control mice were administered equal volume of sterile water. Blood samples were collected by cardiac puncture at 1, 2, 4, 6, 16, and 24 h after oral and intravenous administration of DMA. Plasma was spiked with Hoechst 33342 as internal standard. Plasma proteins were precipitated by adding 180 μl acetonitrile and the samples were centrifuged at 14000 rpm for 10 min at 4° C. Clear supernatant […] was taken and […] distilled water was added to get a ˜35% acetonitrile solution. The samples were injected onto HPLC-MS/MS system.
A standard DMA calibration from 1-1000 ng/ml with internal standard (20 ng/ml) was quantified. Sample analysis was performed on positive ionization mode LC-MS/MS with multiple reactions monitoring (MRM, m/z Q1/Q3) of DMA (m/z 235.1/412.0, retention time (RT) 5.3 min) and internal standard (m/z 227.1/396.0, RT 6.5 min) (Agilent 6410 series). A gradient method was employed to analyze the plasma samples using mobile phase A (0.1% formic acid in water) and mobile phase B (methanol). The B % was set as 30 (0 min), 90 (10-14 min), 30 (14-24 min) with flow rate of 0.3 ml/min. An injection volume of 10 μl was used for analysis.
Peak tissue concentration (Cmax) of DMA and time to reach the Cmax (tmax) were read directly from the raw data by visual examination of mean tissue concentration-time profile. The tissue concentration-time data following oral dose were subjected to one-, two- and three-compartmental models using WinNonlin program (version 6.3; Certara Inc, Missouri, USA) to calculate the pharmacokinetic parameters. The pharmacokinetic models were compared according to maximal correlation between observed and predicted concentration, minimal sum of squared residuals, Akaike Information Criterion (AIC) and Schwarz Bayesian Criterion (SBC). However, the tissue concentration-time data following intravenous administration were subjected to non-compartmental approach.

[4] = test system: Akt/NFκB pathway in HEK293, MRC5 and A549 cell lines; assay: Immunoblot analysis in cell lines; assay type: cell-based, human
Method: HEK293, MRC5 and A549 cells were treated as indicated earlier. The cell pellet was resuspended in RIPA buffer and allowed to swell on ice for 30 min. Balb/c intestine tissue and tumor tissues were homogenized in RIPA buffer. Protein concentration was determined using Bradford's Assay (Bangalore Genei). Western blot was performed using standard protocols with primary antibodies against Akt, pAkt (Ser-473), […], mTOR, p70, Bad, PTEN, IKKα/β, p IKKα/β, p53, Bcl2, GAPDH, and NFκB (p65) (Cell Signalling) and horseradish peroxidase-conjugated mouse or rabbit secondary antibody (Abcam). Signals were detected using enhanced chemiluminescence (ECL system, Pierce) on X-ray film.
Cells after treatment were collected by trypsinization and washed twice with ice-cold PBS. Cell pellet was resuspended in five volumes of cytoplasmic extraction buffer (CEB) [10 mM HEPES pH 7.9, 10 mM KCl, 0.1 mM EDTA, 0.3% NP-40 and 1× protease inhibitor cocktail] to the size of cell pellet for 5 min. Protein solution was centrifuged at 3000 rpm for 5 min at 4° C. and supernatant was harvested as cytoplasmic extract.
The cell pellet obtained after extraction of cytoplasmic proteins was resuspended again in CEB without NP-40. It was centrifuged at 3000 rpm for 5 min at 4° C. and supernatant was discarded. Equal volume of nuclear extraction buffer (NEB) [20 mM HEPES pH7.9, 0.4M NaCl, 1 mM EDTA, 25% Glycerol, and 1× protease inhibitor cocktail] was added to nuclear pellet and incubated on ice for 10 min. Supernatant was harvested as nuclear protein extract.

[5] = 50 mg/kg i.v. before 8Gy TBI, 3 days postirradiation
[6] = melanoma TBM, 50 mg/kg i.v., 8Gy TBI
[7] = Balb/c, mouse, plasma, 100 mg/kg oral
[8] = DMA+Radiation, all three cell lines

## COc1ccc(-c2nc3cc(-c4nc5cc(N6CCN(C)CC6)ccc5[nH]4)ccc3[nH]2)cc1OC [DMA, 5-(4-methylpiperazin-1-yl)-2-[2′-(3,4-dimethoxyphenyl)-5′-benzimidazolyl]benzimidazole]
[1]
  Akt kinase activity: higher Akt kinase activity
[2]; [5]
  Intestine histology: restored the crypts and villi architecture
  Liver histology: reduction in the number of pyknotic and inflammatory kupffer cells
  Spleen histology: restored the white pulp
[2]; [6]
  Intestine histology, tumor bearing mice: intact better heighted villi and crypts
  Lung alveolar structure, tumor bearing mice: less destructured
  Spleen histology, tumor bearing mice: structural retention through white and red pulp protection
A549 cells; 24 h
  % growth compared to control: 73%
  % radioprotection: 11.1%
A549 cells; 48 h
  % growth compared to control: 68%
  % radioprotection: 15%
MRC5 cells; 24 h
  % growth compared to control: 58.62%
  % radioprotection: 20.69%
MRC5 cells; 48 h
  % growth compared to control: 74%
  % radioprotection: 29%
[3]; 50 mg/kg i.v.
  Maximum concentration observed in plasma: 4291.95 ng/mL
  Volume of distribution (Vss): larger than the total blood volume of mouse
[3]; 100 mg/kg oral
  Plasma peak concentration: 445.8 ng/mL
  Time to decline to basal level in plasma: 16 h
[3]; Balb/c, mouse, plasma, iv, 50 mg/kg i.v.
  half-life: 159 min
[3]; [7]
  Tmax: 1.5 h
  half-life: 210 min
[3]; Balb/c, mouse, plasma, 100 mg/kg oral, read-out: Area under curve (AUC), plasma
  AUC: 669 ng·h/mL
[3]; Balb/c, plasma, intravenous, 50 mg/kg, mouse, hepatic blood flow 5.4 L/h/kg, read-out: Systemic clearance (converted)
  clearance: 195 mL/min/kg
[3]; oral and i.v. routes
  Clearance from plasma: rapid clearance
[4]; DMA+Radiation vs control and irradiated
  NFκB p65 level: increased level
[4]; DMA+Radiation, HEK293, MRC5 and A549
  Level of phosphorylated Akt (Ser-473): increased
[4]; [8]
  IκBα protein level: decrease
  Phosphorylation of IKKα and IKKβ: higher
[4]; HEK293 cytoplasmic and nuclear extract, DMA prior to radiation
  NFκB p65 in cytoplasm and nucleus: higher expression
[4]; all three cell lines
  PTEN, mTOR and p70 levels: could not address any significant changes
[4]; prior DMA treatment to radiation, all three cell lines
  Phosphorylated GSK3β: increase

— US10016515B2, “DMA, a bis-benzimidazole, confers radioprotection to the intestine via Akt/NFκB dual pathway activation” (Jawaharlal Nehru University, priority 2016, dated 2018)
